# Reference: PMC7070036, “An amber obligate active site-directed ligand evolution technique for phage display” (Nature Communications, 2020)
# Several values for one entry are separate records, joined by “and”; a condition that tells them apart may be missing. Equal entries are not always repeated. Non-standard residues stand in square brackets, D forms with d. Residues, ends and D or L forms follow the SMILES beside them. Lys(thiomyristoyl) = CCCCCCCCCCCCCC(=S)NCCCC[C@H](N)C(=O)O
# Key:
# Format in all cases: biochemical
# SIRT1 = target: T1, SIRT1 (Homo sapiens, UniProt Q96EB6); assay: Continuous fluorogenic sirtuin inhibition assay, SIRT1; settings: mean ± SD of two independent experiments
# T1 sequence (Q96EB6 1-747): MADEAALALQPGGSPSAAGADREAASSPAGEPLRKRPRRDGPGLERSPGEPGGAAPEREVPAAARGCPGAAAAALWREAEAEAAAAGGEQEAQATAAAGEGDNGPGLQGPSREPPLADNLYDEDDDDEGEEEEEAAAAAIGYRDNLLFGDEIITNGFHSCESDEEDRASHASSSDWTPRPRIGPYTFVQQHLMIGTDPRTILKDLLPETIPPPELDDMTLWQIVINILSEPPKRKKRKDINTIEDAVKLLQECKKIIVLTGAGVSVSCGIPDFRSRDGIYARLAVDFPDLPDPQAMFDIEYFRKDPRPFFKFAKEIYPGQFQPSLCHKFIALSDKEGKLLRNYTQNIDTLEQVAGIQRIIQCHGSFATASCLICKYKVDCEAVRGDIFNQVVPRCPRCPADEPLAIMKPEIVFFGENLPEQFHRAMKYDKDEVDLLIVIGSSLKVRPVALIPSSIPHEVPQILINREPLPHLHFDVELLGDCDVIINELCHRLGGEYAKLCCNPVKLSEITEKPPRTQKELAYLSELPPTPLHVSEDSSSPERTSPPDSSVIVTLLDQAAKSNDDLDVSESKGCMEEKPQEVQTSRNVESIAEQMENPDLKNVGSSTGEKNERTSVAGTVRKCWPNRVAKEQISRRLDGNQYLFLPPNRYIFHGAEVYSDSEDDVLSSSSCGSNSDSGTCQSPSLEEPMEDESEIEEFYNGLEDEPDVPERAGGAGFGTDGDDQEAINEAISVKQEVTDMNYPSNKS
# Method: The continuous assay for comparing isoform specificity of S2P04 was performed using the universal fluorogenic sirtuin substrate described by Schuster et al.[41]. Briefly, the inhibition reactions were performed in 50-µL volumes at 37 °C in black, half-area, 96-well plates. The sirtuin enzyme (0.25 µM) was preincubated with different concentrations of the peptide S2P04 (0.0064–50 µM for SIRT1 and SIRT2, 0.5–100 µM for SIRT3) or TB (0.16–150 µM for SIRT1–SIRT3), and 1 mM NAD^+ in assay buffer (20 mM Tris, pH 7.8, 150 mM NaCl, 5 mM MgCl2, and 1 mM DTT) for 15 min. Following incubation, the reaction started with the addition of the fluorogenic substrate (5 µM), and product formation was monitored by measuring the fluorescence intensity every 20 s for 5 min (SIRT2) or 30 min (SIRT1 and SIRT3) in a BioTek Synergy H1 microplate reader at λex = 320 nm and λem = 408 nm (gain = 130 and read height = 7 mm). Initial rates of product formation were determined by a linear regression of the plot of fluorescence intensity vs. time and normalized relative to 0% (max inhibitor) and 100% (no inhibitor) controls. The assay was repeated to determine the IC50 values of all BuK peptides for SIRT2. IC50 values were determined by nonlinear regression of the plot of the normalized initial rate vs. inhibitor concentration using GraphPad Prism. The determined IC50 values are provided in Supplementary Table 2, and inhibition curves can be seen in Supplementary Fig. 20.
# SIRT2 [1] = target: T2, SIRT2 (Homo sapiens, UniProt Q8IXJ6); assay: SIRT2 inhibition assay, no preincubation
# T2 sequence (Q8IXJ6 1-389): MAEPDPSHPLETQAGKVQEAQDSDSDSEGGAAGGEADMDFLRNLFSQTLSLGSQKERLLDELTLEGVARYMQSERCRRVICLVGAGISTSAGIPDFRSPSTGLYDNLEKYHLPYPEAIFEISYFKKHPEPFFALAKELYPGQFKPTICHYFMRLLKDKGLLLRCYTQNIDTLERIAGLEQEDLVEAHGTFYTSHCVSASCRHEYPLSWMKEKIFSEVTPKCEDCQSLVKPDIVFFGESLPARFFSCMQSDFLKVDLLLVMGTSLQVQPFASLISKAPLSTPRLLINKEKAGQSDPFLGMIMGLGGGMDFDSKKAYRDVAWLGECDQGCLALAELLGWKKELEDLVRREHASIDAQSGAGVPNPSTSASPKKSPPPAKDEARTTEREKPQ
# Method: The inhibition assay was performed using a universal continuous sirtuin substrate. Assays were performed in 40-µL volumes at 37 °C in black, 384-well plates. Five micrometers of substrate was incubated with different concentrations of peptide or TM (0.5–1000 nM in DMF, 20% DMF final concentration) for 2 min in assay buffer (20 mM Tris, pH 7.8, 150 mM NaCl, 5 mM MgCl2, 1 mM DTT, and 1 mM NAD^+). Following incubation, the reaction started with the addition of SIRT2 (10 nM), and product formation was monitored by measuring the fluorescence intensity every 20 s for 10 min (SIRT2) in a BioTek Synergy H1 microplate reader at λex = 320 nm and λem = 408 nm (gain = 130 and read height = 7 mm). Initial rates were determined using the plot of fluorescence vs. time for linear portions of each curve. The IC50 value was determined using GraphPad Prism to fit a nonlinear regression to the normalized rates vs. inhibitor concentration (Supplementary Fig. 30).
# SIRT2 [2] = target: T2, SIRT2; assay: SIRT2 inhibition assay for thiomyristoyl peptides
# Method: Assays were performed in 40-µL volumes at 37 °C in black, 384-well plates. […] Following incubation, the reaction started with the addition of the fluorogenic substrate (5 µM), and product formation was monitored by measuring the fluorescence intensity every 20 s for 5 min (SIRT2) in a BioTek Synergy H1 microplate reader at λex = 320 nm and λem = 408 nm (gain = 130 and read height = 7 mm). Initial rates were determined using the plot of fluorescence vs. time for linear portions of each curve. IC50 values were then determined using GraphPad Prism to fit a nonlinear regression to the normalized rates vs. inhibitor concentration.
compound,measurement,setting,value
CCCCCCCCCCCCCC(=S)NCCCC[C@H](NC(=O)[C@@H](NC(=O)[C@@H](NC(=O)[C@@H](N)CS)[C@@H](C)O)C(C)C)C(=O)N[C@H](C(=O)N[C@@H](CO)C(=O)N[C@@H](CC(C)C)C(N)=O)[C@@H](C)O [S2P03-tMyK] (H-CTV[Lys(thiomyristoyl)]TSL-NH2),IC50,SIRT1,0.4 ± 0.1 µM
same,change in IC50 without preincubation of enzyme,SIRT2 [1],insignificant change in IC50
same,IC50,"SIRT2 [2]; 10 nM SIRT2, 15 min preincubation, 5 µM substrate, n = 2",0.01 ± 0.003 µM
same,activity at 0.000465917 µM,SIRT2 [2]; inhibitor 0.465917 nM,102%
same,"%Activity, SIRT2","SIRT2 [2]; inhibitor 0.465917 nM, 0.000465917 µM",98.0615%
same,"%Activity, SIRT2","SIRT2 [2]; inhibitor 0.931834 nM, 0.000931834 µM",113.937% and 81.1704%
same,activity at 0.00186367 µM,SIRT2 [2]; inhibitor 1.86367 nM,99.7%
same,"%Activity, SIRT2","SIRT2 [2]; inhibitor 1.86367 nM, 0.00186367 µM",95.1685%
same,activity at 0.00372734 µM,SIRT2 [2]; inhibitor 3.72734 nM,96.6%
same,"%Activity, SIRT2","SIRT2 [2]; inhibitor 3.72734 nM, 0.00372734 µM",82.1027%
same,"%Activity, SIRT2","SIRT2 [2]; inhibitor 7.45468 nM, 0.00745468 µM",52.8299% and 73.9018%
same,activity at 0.0149094 µM,SIRT2 [2]; inhibitor 14.9094 nM,40.8%
same,"%Activity, SIRT2","SIRT2 [2]; inhibitor 14.9094 nM, 0.0149094 µM",45.2416%
same,"%Activity, SIRT2","SIRT2 [2]; inhibitor 477.099 nM, 0.477099 µM",3.151% and -3.151%
same,"%Activity, SIRT2","SIRT2 [2]; inhibitor 954.198 nM, (Activity/Activity w/o inhibitor)*100, single trials, 0.954198 µM",11.9872% and 2.232%
